ChEMBL document CHEMBL4190345, “Synthesis and biological evaluation of new substituted thioglycolurils, their analogues and derivatives” (Eur J Med Chem, 2017)
pIC50: −log10 of the molar value.

Tests used:
[1] = Cytotoxicity in human […] cells assessed as inhibition of cell growth incubated for 72 hrs by MTT assay; assay type: functional, cell-based
Fusarium oxysporum = assay: Fungicidal activity against Fusarium oxysporum grown under potato-saccharose agar assessed as inhibition of mycelial radial growth at 30 mg/l incubated for 72 hrs; assay type: functional; conditions: read-out: GI
Bipolaris sorokiniana = assay: Fungicidal activity against Bipolaris sorokiniana grown under potato-saccharose agar assessed as inhibition of mycelial radial growth at 30 mg/l incubated for 72 hrs; assay type: functional; conditions: read-out: GI
RD = assay: Cytotoxicity in human RD cells assessed as inhibition of cell growth incubated for 72 hrs by MTT assay; assay type: functional, cell-based
Fusarium verticillioides = assay: Fungicidal activity against Fusarium moniliforme grown under potato-saccharose agar assessed as inhibition of mycelial radial growth at 30 mg/l incubated for 72 hrs; assay type: functional; conditions: read-out: GI
Sclerotinia sclerotiorum = assay: Fungicidal activity against Sclerotinia sclerotiorum grown under potato-saccharose agar assessed as inhibition of mycelial radial growth at 30 mg/l incubated for 72 hrs; assay type: functional; conditions: read-out: GI
MCF7 = assay: Cytotoxicity in human MCF7 cells assessed as inhibition of cell growth incubated for 72 hrs by MTT assay; assay type: functional, cell-based; conditions: MCF7, 72 h
A549 = assay: Cytotoxicity in human A549 cells assessed as inhibition of cell growth incubated for 72 hrs by MTT assay; assay type: functional, cell-based; conditions: A549, 72 h
Rhizoctonia solani = assay: Fungicidal activity against Rhizoctonia solani grown under potato-saccharose agar assessed as inhibition of mycelial radial growth at 30 mg/l incubated for 72 hrs; assay type: functional; conditions: read-out: GI
Venturia inaequalis = assay: Fungicidal activity against Venturia inaequalis grown under potato-saccharose agar assessed as inhibition of mycelial radial growth at 30 mg/l incubated for 72 hrs; assay type: functional; conditions: read-out: GI
HEK293 = assay: Cytotoxicity in human HEK293 cells assessed as inhibition of cell growth incubated for 72 hrs by MTT assay; assay type: cell-based; conditions: for pIC50: Homo sapiens, HEK293, 72 h, read-out: IC50

SMILES | pIC50 [1] | inhibition of growth at 30 µg/mL (Fusarium oxysporum) | inhibition of growth at 30 µg/mL (Bipolaris sorokiniana) | pIC50 (RD) | inhibition of growth at 30 µg/mL (Fusarium verticillioides) | inhibition of growth at 30 µg/mL (Sclerotinia sclerotiorum) | pIC50 (MCF7) | pIC50 (A549) | inhibition of growth at 30 µg/mL (Rhizoctonia solani) | inhibition of growth at 30 µg/mL (Venturia inaequalis) | pIC50 (HEK293) | IC50 (HEK293; hek293)
CCN1C(=O)N(CC)C2C1NC(=S)N2/N=C/C=C/c1ccc(OC)cc1 (stereo unspecified) | 4.76 | 18% | 19% | 4.06 | 23% | 0% | 4.44 | 4.76 | 26% | 14% | – | –
CSC1=NC2C(N(C)C(=O)N2C)N1/N=C/C=C/c1ccco1 (stereo unspecified) | – | 34% | 34% | – | 51% | 11% | – | – | 27% | 19% | – | –
CSC1=NC2C(N(C)C(=O)N2C)N1/N=C/C=C/c1ccccc1[N+](=O)[O-] (stereo unspecified) | < 4.00 | 20% | 36% | < 4.00 | 19% | 13% | < 4.00 | < 4.00 | 49% | 10% | – | –
CCN1C(=O)N(c2ccccc2)C2NC(=S)N(/N=C/C=C/c3ccccc3)C21 (stereo unspecified) | 5.84 | – | – | 6.33 | – | – | 5.65 | < 4.00 | – | – | 5.66 | –
CSC1=NC2C(N(C)C(=O)N2c2ccccc2)N1/N=C/C=C/c1ccccc1 (stereo unspecified) | – | 25% | 56% | – | 16% | 0% | – | – | 32% | 24% | – | –
COc1ccc(/C=C/C=N/N2C(=S)NC3C2N(C)C(=O)N3C)cc1 (stereo unspecified) | 4.00 | – | – | < 4.00 | – | – | < 4.00 | < 4.00 | – | – | – | –
CC(/C=N/N1C(=S)NC2C1N(C)C(=O)N2C)=C\c1ccccc1 (stereo unspecified) | 4.12 | 29% | 9% | 4.08 | 20% | 11% | < 4.00 | 4.31 | 82% | 28% | – | –
COc1ccccc1/C=C/C=N/N1C(SC)=NC2C1N(C)C(=O)N2C (stereo unspecified) | – | 20% | 33% | – | 14% | 13% | – | – | 56% | 13% | – | –
COc1ccc(/C=C/C=N/N2C(SC)=NC3C2N(C)C(=O)N3C)cc1 (stereo unspecified) | – | 24% | 50% | – | 36% | 19% | – | – | 74% | 13% | – | –
CN1C(=O)N(C)C2C1N=C(SCc1ccc(Cl)cc1)N2/N=C/C=C/c1ccccc1 (stereo unspecified) | – | 46% | 49% | – | 57% | 17% | – | – | 28% | 18% | – | –
CCN1C(=O)N(CC)C2C1NC(=O)N2/N=C/C=C/c1ccccc1 (stereo unspecified) | 4.74 | – | – | 5.69 | – | – | 4.08 | 4.35 | – | – | – | Not Active
CCN1C(=O)N(CC)C2C1NC(=O)N2/N=C/C=C/c1ccccc1[N+](=O)[O-] (stereo unspecified) | 5.02 | – | – | 5.71 | – | – | 4.06 | < 4.00 | – | – | 4.37 | –
CN1C(=O)N(C)C2C1NC(=S)N2/N=C/C=C/c1ccccc1 (stereo unspecified) | 4.37 | – | – | 4.34 | – | – | < 4.00 | 4.34 | – | – | – | –
CCSC1=NC2C(N(C)C(=O)N2C)N1/N=C/C=C/c1ccccc1 (stereo unspecified) | – | 70% | 48% | – | 71% | 32% | – | – | 80% | 28% | – | –
CSC1=NC2C(N(C)C(=O)N2C)N1/N=C/C=C/c1ccccc1 (stereo unspecified) | – | 71% | 50% | – | 73% | 17% | – | – | 45% | 9% | – | –
CCN1C(=O)N(CC)C2C1N=C(SC)N2/N=C/C=C/c1ccccc1[N+](=O)[O-] (stereo unspecified) | 4.18 | – | – | 4.38 | – | – | 4.18 | < 4.00 | – | – | – | –
CN1C(=O)N(C)C2C1N=C(SCc1ccc(Cl)cc1)N2/N=C/C=C/c1ccco1 (stereo unspecified) | – | 33% | 40% | – | 42% | 19% | – | – | 42% | 10% | – | –
CCSC1=NC2C(N(CC)C(=O)N2CC)N1/N=C/C=C/c1ccccc1 (stereo unspecified) | – | 61% | 77% | – | 63% | 29% | – | – | 67% | 30% | – | –
CCN1C(=O)N(CC)C2C1NC(=S)N2/N=C/C(C)=C/c1ccccc1 (stereo unspecified) | 4.58 | 23% | 7% | 4.70 | 41% | 5% | 4.45 | < 4.00 | 34% | 25% | – | –
CCN1C(=O)N(CC)C2C1NC(=S)N2/N=C/C=C/c1ccccc1[N+](=O)[O-] (stereo unspecified) | 5.11 | – | – | 4.82 | – | – | 4.36 | < 4.00 | – | – | 4.72 | –
CSC1=NC2C(N(C)C(=O)N2c2ccccc2)N1/N=C/C=C/c1ccccc1[N+](=O)[O-] (stereo unspecified) | – | 10% | 37% | – | 9% | 17% | – | – | 12% | 16% | – | –
CCN1C(=O)N(CC)C2C1N=C(SC)N2/N=C/C=C/c1ccc(OC)cc1 (stereo unspecified) | – | 32% | 64% | – | 32% | 12% | – | – | 76% | 13% | – | –
CN1C(=O)N(c2ccccc2)C2NC(=S)N(/N=C/C=C/c3ccccc3)C21 (stereo unspecified) | 4.92 | – | – | 5.77 | – | – | < 4.00 | < 4.00 | – | – | 3.78 | –
CN1C(=O)N(C)C2C1NC(=O)N2/N=C/C=C/c1ccccc1 (stereo unspecified) | – | 6% | 5% | – | 9% | 12% | – | – | 92% | 18% | – | –
CCN1C(=O)N(CC)C2C1N=C(SCc1ccc(Cl)cc1)N2/N=C/C=C/c1ccccc1OC (stereo unspecified) | – | 8% | 36% | – | 13% | 14% | – | – | 19% | 21% | – | –
COc1cccc2c1C(=O)c1c(O)c3c(c(O)c1C2=O)C[C@@](O)(C(C)=O)C[C@@H]3O[C@H]1C[C@H](N)[C@H](O)[C@H](C)O1 [DAUNORUBICIN] | 6.68 | – | – | 5.61 | – | – | 5.84 | 6.29 | – | – | 4.95 | –
CC(C)(C)C(=O)C(Oc1ccc(Cl)cc1)n1cncn1 (stereo unspecified) [TRIADIMEFON] | – | 64% | 76% | – | 61% | 61% | – | – | 52% | 60% | – | –
